According to US5514687A, “Benzopyrido piperidylidene compounds, compositions, methods of manufacture and method of use” (Schering Corporation, priority 1993, dated 1996):
pIC50: −log10 of the molar value.

How the values were obtained:
Histamine = test: Histamine-induced bronchospasm in guinea pigs (in vivo, oral); parameters: species or system guinea pig; conditions: histamine 10 ug/kg i.v.
Description: (§1) B. In Vivo Studies: Agonist-Induced Responses Spasmogen-Induced Bronchospasm in Guinea Pigs
(§2) Male Hartley guinea pigs (450-550 g) were obtained from Charles River Breeding Laboratories. The animals were fasted overnight and the following day were anesthetized with 0.9 mL/kg i.p. of dialurethane (containing 0.1 g/mL dialylbarbiturikc acid, 0.4 g/mL ethylurea and 0.4 g/mL urethane). The left jugular vein was cannulated for the administration of compounds. The trachea was cannulated and the animals were venticlated by a rodent respirator at 55 strokes/min. with a stroke volume of 4 mL. A side arm to the tracheal cannula was connected to a pressure transducer to obtain a continuous measure of inflation pressure. Bronchoconstriction was measured as the percent increase in inflation pressure that peaked within 5 min. after challenge with spasmogen. The animals were challenged i.v. with either histamine (10 ug/kg) or PAF (0.4 μg/kg in isotonic saline containing 0.25% BSA). Each animal was challenged with only a single spasmogen. The effect of a compound on the bronchospasm is expressed as a percent inhibition of the increase in inflation pressure compared to the increase in a control group.

PAF = test: PAF-induced bronchospasm in guinea pigs (in vivo, oral); parameters: species or system guinea pig; conditions: PAF 0.4 μg/kg i.v.
Description: as §1, §2

[1] = test system: PAF-induced platelet aggregation; test: Platelet Aggregation Assay (PAF antagonism, in vitro); type: cell-based; conditions: human platelet-rich plasma, PAF 1-5×10^-8 M, 37° C.
Description: Platelet Aggregation Assay
Platelet-activating factor (PAF) causes aggregation of platelets by a receptor-mediated mechanism. Therefore, PAF-induced platelet aggregation provides a simple and convenient assay to screen compounds for PAF antagonism.
Human blood (50 mL) was collected from healthy male donors in an anticoagulant solution (5 mL) containing sodium citrate (3.8%) and dextrose (2%), Blood was centrifuged at 110×g for 15 min. and the supeernatant platelet-rich plasma (PRP) carefully transferred into a polypropylene tube. Platelet-poor-plasma (PPP) was prepared by centrifuging PRP at 12,000×g for 2 min. (Beckman Microfuge B). PRP was used within 3 hr. of drawing the blood.
PAF was dissolved In chloroform:methanol (1:1, v/v) at a concentration of 2 mg/mL and stored at -70° C. An aliquot of this solution was transferred to a polypropylene tube and dried under a flow of nitrogen gas. To the dried sample was added Hepes-e-BSA (BSA=bovine serum albumen) buffer (25 mM Hepes, pH 7.4, […], 0.7 mM MgCl2 and 0.1% BSA) to obtain a 1 mM solution and sonicated for 5 min. in a bath sonicator. This stock solution was further diluted to appropriate concentrations in Hepes-saline-BSA buffer. Collagen (Sigma) and adenosine diphosphate (ADP) (Sigma) were purchased as solutions. Test compounds were initially dissolved in dimethyl sulfoxide (DMSO) at a concentration of 50 mM and then further diluted in Hepes-saline-BSA buffer to achieve appropriate concentrations.
When an aggregating agen such as PAF is added to PRP, platelets aggregate. An aggregometer quantifies this aggreation by measuring and comparing light (infra-red) transmission through PPP and PRP. Aggregation assays were performed using a dual-channel aggregometer (Model 440, Chrono-Log Corp., Havertown, Pa.). PRP (0.45 mL) in aggregometer cuvettes was continually stirred (37° C.). Solution (50 μL) of test compounds or vehicle were added to the PRP and, after incubation for 2 min., 10-15 μl aliquots of PAF solution were added to achieve a final concentration of 1-5×10^-8 M. In different experiments the aggregatory response was kept within a set limit by varying the concentration of PAF. Incubations were continued until the increase in light transmission reached a maximum (usually 2 min.). This increase in lighyt transmission reflecting platlet aggregation is transmitted to a computer by the Chrono-Log model 810 AGGRO/LINK interface. The AGGRO/LINK calculates the slope of transmission change, thus providing the rate of aggregation. Values for inhibition were calculated by comparing rates of aggregation obtained in the absence and the presence of the compound. […]

[2] = oral 3 mg/kg, 2 hours after drug
[3] = oral 15 mg/kg, 8 hours after drug
[4] = oral 5 mg/kg, 8 hours after drug
[5] = oral 15 mg/kg, 16 hours after drug
[6] = oral 10 mg/kg, 6 hours after drug
[7] = oral 10 mg/kg, 16 hours after drug

| Compound | Agonist Bronchospasm (in vivo)-Oral, Histamine, Inhibition (Histamine; [2]) [%] | Agonist Bronchospasm (in vivo)-Oral, Histamine, Inhibition (Histamine; [3]) [%] | Agonist Bronchospasm (in vivo)-Oral, PAF, Inhibition (PAF; [2]) [%] | Agonist Bronchospasm (in vivo)-Oral, PAF, Inhibition (PAF; [3]) [%] | pIC50 [1] | Agonist Bronchospasm (in vivo)-Oral, PAF, Inhibition (PAF; oral 10 mg/kg, 2 hours after drug) [%] | Agonist Bronchospasm (in vivo)-Oral, Histamine, Inhibition (Histamine; [4]) [%] | Agonist Bronchospasm (in vivo)-Oral, Histamine, Inhibition (Histamine; [5]) [%] | Agonist Bronchospasm (in vivo)-Oral, PAF, Inhibition (PAF; [4]) [%] | Agonist Bronchospasm (in vivo)-Oral, PAF, Inhibition (PAF; [5]) [%] | Agonist Bronchospasm (in vivo)-Oral, Histamine, Inhibition (Histamine; [6]) [%] | Agonist Bronchospasm (in vivo)-Oral, Histamine, Inhibition (Histamine; [7]) [%] | Agonist Bronchospasm (in vivo)-Oral, PAF, Inhibition (PAF; [6]) [%] | Agonist Bronchospasm (in vivo)-Oral, PAF, Inhibition (PAF; [7]) [%] |
| --- | --- | --- | --- | --- | --- | --- | --- | --- | --- | --- | --- | --- | --- | --- |
| CC(=O)N1CCC(=C2c3ccc(Cl)cc3CCc3cccnc32)CC1 [Compound No. 1] | 49 | 100 | 3 | 32 | 6.22 |  |  |  |  |  |  |  |  |  |
| CC(=O)N1CCC(=C2c3ccc(Cl)cc3OCc3cccnc32)CC1 [Compound No. 2] |  |  |  |  | 5.22 | 27 |  |  |  |  |  |  |  |  |
| O=C(c1cc[n+]([O-])cc1)N1CCC(=C2c3ccc(Cl)cc3CCc3cccnc32)CC1 [Compound No. 3] | 37 |  | 93 |  | 6.70 |  | 33 | 64 | 12 | 13 |  |  |  |  |
| O=C(c1cc[n+]([O-])cc1)N1CCC(=C2c3ccc(Cl)cc3OCc3cccnc32)CC1 [Compound No. 4, 4-(8-Chloro-5,11-dihydro 1!benzoxepino 4,3-b!pyridin-11-ylidene)-1-(4-pyridinylcarbonyl)piperidine N^1-oxide] | 46 |  | 76 |  | 6.40 |  |  |  |  |  | 73 | 95 | 94 | 55 |
